In general, logP refers to the decadic logarithm of the partition coefficient of the neutral form, usually between octanol and water.

Among the data in ChEMBL document CHEMBL1153846, “QSAR studies for diarylpyrimidines against HIV-1 reverse transcriptase wild-type and mutant strains” (Eur J Med Chem, 2009) are log(1/C) and logP values, retold here.

The first data set concerns Human immunodeficiency virus type 1 reverse transcriptase (Human immunodeficiency virus 1), Q72547 [L100I]. Put plainly: Inhibition of HIV1 reverse transcriptase L100I mutant.
Conditions: not given
For `Cc1cc(C#N)cc(C)c1Oc1nc(Nc2ccc(C#N)cc2)ncc1Cl`, the log(1/C) is 8.12.
Turning to `Cc1cc(C)c(Nc2nc(Nc3ccc(C#N)cc3)ncc2C#N)c(C)c1`, the log(1/C) is 7.2.
On the same count and under the same terms, then `Cc1cccc(C)c1Nc1ccnc(Nc2ccc(C#N)cc2)n1`, with 6.67; and `Cc1cc(Br)cc(C)c1Oc1ccnc(Nc2ccc(C#N)cc2)n1`, with 6.95.
On the same count and under the same terms, the figure for `Cc1cc(C)c(Nc2ccnc(Nc3ccc(C#N)cc3)n2)c(C)c1` [DAPIVIRINE] is 7.74; for `C#Cc1cc(C)c(Oc2ccnc(Nc3ccc(C#N)cc3)n2)c(C)c1` it is 6.73.
In turn, `Cc1cc(C)c(Nc2nc(Nc3ccc(C#N)cc3)ncc2C)c(C)c1` yielded a log(1/C) of 7.92.
Turning to `Cc1cc(C#N)cc(C)c1Oc1ccnc(Nc2ccc(C#N)cc2)n1`, the log(1/C) amounted to 7.14.
Still for that read-out and setting: the figure for `Cc1cc(C#N)cc(C)c1Nc1nc(Nc2ccc(C#N)cc2)nc(CO)c1Br` is 8.7.
The compound `Cc1cc(Br)cc(C)c1Nc1ccnc(Nc2ccc(C#N)cc2)n1` registered a log(1/C) of 7.12.
`Cc1cc(C)c(Sc2ccnc(Nc3ccc(C#N)cc3)n2)c(C)c1` registered a log(1/C) of 7.27.
Same read-out and setting: then `C=Cc1cnc(Nc2ccc(C#N)cc2)nc1Nc1c(C)cc(C)cc1C`, with 7.46.
With `Cc1cc(C#N)cc(C)c1Nc1nc(Nc2ccc(C#N)cc2)ncc1Br`, the log(1/C) came to 8.15.
`Cc1cc(Cl)cc(C)c1Nc1ccnc(Nc2ccc(C#N)cc2)n1` showed a log(1/C) of 6.49.

The test system of a further data set is Human immunodeficiency virus type 1 reverse transcriptase (Human immunodeficiency virus 1), Q72547 [[…]]. Put plainly: Inhibition of HIV1 reverse transcriptase Y188L mutant.
Conditions: not given
`Cc1cc(C#N)cc(C)c1Oc1nc(Nc2ccc(C#N)cc2)ncc1Cl` had a log(1/C) of 8.32.
Same read-out and setting: the figure for `Cc1cc(C)c(Nc2nc(Nc3ccc(C#N)cc3)ncc2C#N)c(C)c1` is 7.11; for `Cc1cccc(C)c1Nc1ccnc(Nc2ccc(C#N)cc2)n1` it is 6.59.
On the same count and under the same terms, then `Cc1cc(Br)cc(C)c1Oc1ccnc(Nc2ccc(C#N)cc2)n1`, with 7.1; and `Cc1cc(C)c(Nc2ccnc(Nc3ccc(C#N)cc3)n2)c(C)c1` [DAPIVIRINE], with 7.32; and `C#Cc1cc(C)c(Oc2ccnc(Nc3ccc(C#N)cc3)n2)c(C)c1`, with 7.3.
Consider `Cc1cc(C)c(Nc2nc(Nc3ccc(C#N)cc3)ncc2C)c(C)c1`, for which the log(1/C) was found to be 7.74.
The same measure, in the same setting: the figure for `Cc1cc(C#N)cc(C)c1Oc1ccnc(Nc2ccc(C#N)cc2)n1` is 7.72.
The same measure, in the same setting: the figure for `Cc1cc(C#N)cc(C)c1Nc1nc(Nc2ccc(C#N)cc2)nc(CO)c1Br` is 8.22; for `Cc1cc(Br)cc(C)c1Nc1ccnc(Nc2ccc(C#N)cc2)n1` it is 7.16; for `Cc1cc(C)c(Sc2ccnc(Nc3ccc(C#N)cc3)n2)c(C)c1` it is 7.7.
The compound `C=Cc1cnc(Nc2ccc(C#N)cc2)nc1Nc1c(C)cc(C)cc1C` gave a log(1/C) of 7.54.
The same measure, in the same setting: then `Cc1cc(C#N)cc(C)c1Nc1nc(Nc2ccc(C#N)cc2)ncc1Br`, with 8.48; and `Cc1cc(Cl)cc(C)c1Nc1ccnc(Nc2ccc(C#N)cc2)n1`, with 6.94.

System in the next data set: not listed separately
Put plainly: Hydrophobic index, Log P of the compound. The class given is physicochemical. The settings on record: octanol/water; read-out: logP.
With `Cc1cc(C)c(Nc2nc(Nc3ccc(C#N)cc3)ncc2-c2ccccc2)c(C)c1`, the logP was determined as 3.14.
`Cc1cc(C#N)cc(C)c1Oc1nc(Nc2ccc(C#N)cc2)ncc1Cl`: the logP is 1.29.
As to `Cc1cc(C)c(Nc2nc(Nc3ccc(C#N)cc3)ncc2C#N)c(C)c1`, the logP was 1.49.
The same measure, in the same setting: then `Cc1cccc(C)c1Nc1ccnc(Nc2ccc(C#N)cc2)n1`, with 1.49.
On to `Cc1cc(Br)cc(C)c1Oc1ccnc(Nc2ccc(C#N)cc2)n1`, for which the logP stood at 1.72.
Same read-out and setting: then `Cc1cc(C)c(Nc2ccnc(Nc3ccc(C#N)cc3)n2)c(C)c1` [DAPIVIRINE], with 1.64; and `C#Cc1cnc(Nc2ccc(C#N)cc2)nc1Nc1c(C)cc(C)cc1C`, with 1.63; and `C#Cc1cc(C)c(Oc2ccnc(Nc3ccc(C#N)cc3)n2)c(C)c1`, with 1.53.
Same read-out and setting: the figure for `Cc1cc(C)c(Nc2nc(Nc3ccc(C#N)cc3)ncc2C)c(C)c1` is 1.92.
On to `CC(=O)Nc1cnc(Nc2ccc(C#N)cc2)nc1Oc1c(C)cc(C#N)cc1C`, for which the logP is -0.38.
For the compound `Cc1cc(C#N)cc(C)c1Oc1ccnc(Nc2ccc(C#N)cc2)n1`, the logP is 1.39.
The same measure, in the same setting: the figure for `Cc1cc(C#N)cc(C)c1Nc1nc(Nc2ccc(C#N)cc2)nc(CO)c1Br` is 0.81; for `Cc1cc(Br)cc(C)c1Nc1ccnc(Nc2ccc(C#N)cc2)n1` it is 1.54; for `Cc1cc(C)c(Sc2ccnc(Nc3ccc(C#N)cc3)n2)c(C)c1` it is 2.16.
Consider `C=Cc1cnc(Nc2ccc(C#N)cc2)nc1Nc1c(C)cc(C)cc1C`, for which the logP is 2.1.
As to `Cc1cc(C#N)cc(C)c1Nc1nc(Nc2ccc(C#N)cc2)ncc1Br`, the logP came to 1.39.
Regarding `Cc1cc(Cl)cc(C)c1Nc1ccnc(Nc2ccc(C#N)cc2)n1`, the logP is 1.27.

In a further data set the target is Human immunodeficiency virus type 1 reverse transcriptase (Human immunodeficiency virus 1) (UniProt Q72547). Put plainly: Inhibition of HIV1 wild type reverse transcriptase.
Conditions: not given
In the case of `Cc1cc(C)c(Nc2nc(Nc3ccc(C#N)cc3)ncc2-c2ccccc2)c(C)c1`, the log(1/C) came out at 7.62.
Compound `Cc1cc(C#N)cc(C)c1Oc1nc(Nc2ccc(C#N)cc2)ncc1Cl` registered a log(1/C) of 8.85.
For `Cc1cc(C)c(Nc2nc(Nc3ccc(C#N)cc3)ncc2C#N)c(C)c1`, the log(1/C) is 9.
`Cc1cccc(C)c1Nc1ccnc(Nc2ccc(C#N)cc2)n1` gave a log(1/C) of 9.15.
In the case of `Cc1cc(Br)cc(C)c1Oc1ccnc(Nc2ccc(C#N)cc2)n1`, the log(1/C) is 8.54.
Same read-out and setting: then `Cc1cc(C)c(Nc2ccnc(Nc3ccc(C#N)cc3)n2)c(C)c1` [DAPIVIRINE], with 9.
The compound `C#Cc1cc(C)c(Oc2ccnc(Nc3ccc(C#N)cc3)n2)c(C)c1` gave a log(1/C) of 8.26.
Still for that read-out and setting: then `Cc1cc(C)c(Nc2nc(Nc3ccc(C#N)cc3)ncc2C)c(C)c1`, with 8.77; and `Cc1cc(C#N)cc(C)c1Oc1ccnc(Nc2ccc(C#N)cc2)n1`, with 8.96; and `Cc1cc(C#N)cc(C)c1Nc1nc(Nc2ccc(C#N)cc2)nc(CO)c1Br`, with 8.4.
On to `Cc1cc(Br)cc(C)c1Nc1ccnc(Nc2ccc(C#N)cc2)n1`, for which the log(1/C) was 8.64.
Compound `Cc1cc(C)c(Sc2ccnc(Nc3ccc(C#N)cc3)n2)c(C)c1` came in with a log(1/C) of 8.44.
For the compound `C=Cc1cnc(Nc2ccc(C#N)cc2)nc1Nc1c(C)cc(C)cc1C`, the log(1/C) turned out to be 8.6.
`Cc1cc(C#N)cc(C)c1Nc1nc(Nc2ccc(C#N)cc2)ncc1Br` had a log(1/C) of 9.4.
The same measure, in the same setting: the figure for `Cc1cc(Cl)cc(C)c1Nc1ccnc(Nc2ccc(C#N)cc2)n1` is 8.68.

For a further data set, the system named is Human immunodeficiency virus type 1 reverse transcriptase (Human immunodeficiency virus 1), Q72547 [Y181C]. Put plainly: Inhibition of HIV1 reverse transcriptase Y181C mutant.
Conditions: not given
On to `Cc1cc(C#N)cc(C)c1Oc1nc(Nc2ccc(C#N)cc2)ncc1Cl`, for which the log(1/C) came to 7.47.
Still for that read-out and setting: the figure for `Cc1cc(C)c(Nc2nc(Nc3ccc(C#N)cc3)ncc2C#N)c(C)c1` is 7.4; for `Cc1cccc(C)c1Nc1ccnc(Nc2ccc(C#N)cc2)n1` it is 7.21.
On to `Cc1cc(Br)cc(C)c1Oc1ccnc(Nc2ccc(C#N)cc2)n1`, for which the log(1/C) amounted to 7.23.
For `Cc1cc(C)c(Nc2ccnc(Nc3ccc(C#N)cc3)n2)c(C)c1` [DAPIVIRINE], the log(1/C) was 8.12.
With `C#Cc1cc(C)c(Oc2ccnc(Nc3ccc(C#N)cc3)n2)c(C)c1`, the log(1/C) stood at 6.77.
The compound `Cc1cc(C)c(Nc2nc(Nc3ccc(C#N)cc3)ncc2C)c(C)c1` yielded a log(1/C) of 7.92.
For the compound `Cc1cc(C#N)cc(C)c1Oc1ccnc(Nc2ccc(C#N)cc2)n1`, the log(1/C) amounted to 7.43.
`Cc1cc(C#N)cc(C)c1Nc1nc(Nc2ccc(C#N)cc2)nc(CO)c1Br` displayed a log(1/C) of 8.22.
`Cc1cc(Br)cc(C)c1Nc1ccnc(Nc2ccc(C#N)cc2)n1`: the log(1/C) turned out to be 7.77.
The compound `Cc1cc(C)c(Sc2ccnc(Nc3ccc(C#N)cc3)n2)c(C)c1` returned a log(1/C) of 7.6.
Same read-out and setting: then `C=Cc1cnc(Nc2ccc(C#N)cc2)nc1Nc1c(C)cc(C)cc1C`, with 7.44; and `Cc1cc(C#N)cc(C)c1Nc1nc(Nc2ccc(C#N)cc2)ncc1Br`, with 8.02.
On the same count and under the same terms, the figure for `Cc1cc(Cl)cc(C)c1Nc1ccnc(Nc2ccc(C#N)cc2)n1` is 7.72.
